# Measurements as given in PMC9127750, “Structure-based design of CDC42 effector interaction inhibitors for the treatment of cancer” (Cell reports, 2022).
# “And” between values parts separate entries of the source, which are not always exact repeats. Identical values can stand only once.
# System: WM3248 melanoma cells, 486 antibodies
# Test: Reverse phase protein arrays (RPPA)
# Format: cell-based, Human
# Text: Pellets were snap frozen in liquid nitrogen and shipped to MD Anderson Cancer Center core RPPA facility for RPPA analysis (Table S5). Three biological replicates for each sample were generated.
# Nomenclatures on the RPPA heatmaps: name_of_antibody.species_of_antibody.status_of_antibody. V - antibody validated; C - validation of antibody in progress; Q - antibody nonspecific; E – under evaluation; antibodies raised in M - mouse, G - goat, R - rabbit, or T - rat.
# [1] = Norm_10, replicates 1-3 and Average, relative to Norm_0
smiles,measurement,setting,value
"CN(C)c1cccc(Nc2cc(-c3ccccc3)nc(C3CCNCC3)n2)c1 [ARN22089, N1,N1-dimethyl-N3-(6-phenyl-2-(piperidin-4-yl)pyrimidin-4-yl)benzene-1,3-diamine]","A.Raf.R.V RPPA signal, normalized",[1],1.018 and 0.886 and 0.845 and 0.916
same,"A.Raf_pS299.R.C RPPA signal, normalized",[1],0.956 and 1.046 and 0.963 and 0.988
same,"ACC1.R.C RPPA signal, normalized",[1],0.867 and 0.964 and 1.014
same,"ACC_pS79.R.V RPPA signal, normalized",[1],1.238 and 0.635 and 0.956 and 0.943
same,"ACLY_pS455.R.V RPPA signal, normalized",[1],1.247 and 1.003 and 1.249 and 1.166
same,"ACSL1.R.V RPPA signal, normalized",[1],1.119 and 1.062 and 0.954
same,"ACVRL1.R.C RPPA signal, normalized",[1],0.974 and 1.028 and 1.030
same,"ADAR1.M.V RPPA signal, normalized",[1],1.080 and 1.272 and 0.921
same,"ALKBH5.R.V RPPA signal, normalized",[1],1.021 and 1.291 and 1.103 and 1.138
same,"AMPK.a2_pS345.R.V RPPA signal, normalized",[1],0.954 and 0.956 and 0.960
same,"AMPKa.R.C RPPA signal, normalized",[1],1.010 and 0.920 and 1.002 and 0.977
same,"AMPKa_pT172.R.C RPPA signal, normalized",[1],3.569 and 0.222 and 0.796 and 1.529
same,"AR.R.V RPPA signal, normalized",[1],0.751 and 0.934 and 0.920
same,"ARID1A.R.C RPPA signal, normalized",[1],1.114 and 1.573 and 0.868 and 1.185
same,"ASNS.R.V RPPA signal, normalized",[1],1.340 and 0.994 and 0.954 and 1.096
same,"ATM.R.V RPPA signal, normalized",[1],0.847 and 0.838 and 0.979 and 0.888
same,"ATM_pS1981.R.V RPPA signal, normalized",[1],0.930 and 1.145
same,"ATP5A.M.C RPPA signal, normalized",[1],1.031 and 1.371 and 1.971 and 1.457
same,"ATP5H.R.V RPPA signal, normalized",[1],0.974 and 1.346 and 1.188 and 1.169
same,"ATR.R.V RPPA signal, normalized",[1],0.962 and 1.081 and 1.002 and 1.015
same,"ATRX.R.C RPPA signal, normalized",[1],0.876 and 0.968 and 0.978
same,"ATR_pS428.R.C RPPA signal, normalized",[1],1.008 and 0.851 and 1.012 and 0.957
same,"AceCS1.R.V RPPA signal, normalized",[1],1.235 and 1.121
same,"Akt1.R.V RPPA signal, normalized",[1],0.800 and 0.756 and 1.156 and 0.904
same,"Akt1_pS473.R.V RPPA signal, normalized",[1],0.892 and 0.682 and 1.059 and 0.878
same,"Akt2.R.V RPPA signal, normalized",[1],0.829 and 0.768 and 1.018 and 0.872
same,"Akt2_pS474.R.C RPPA signal, normalized",[1],1.011 and 0.801 and 0.950
same,"Akt.R.V RPPA signal, normalized",[1],0.830 and 0.878 (2×) and 0.925
same,"Akt_pS473.R.V RPPA signal, normalized",[1],2.128 and 0.984 and 1.238 and 1.450
same,"Akt_pT308.R.V RPPA signal, normalized",[1],1.187 and 1.056 and 1.185 and 1.143
same,"Ambra1_pS52.R.C RPPA signal, normalized",[1],0.964 (2×) and 1.015 and 0.981
same,"Annexin.I.M.V RPPA signal, normalized",[1],0.849 and 0.987 and 1.005
same,"Annexin.VII.M.V RPPA signal, normalized",[1],0.985 and 1.189 and 0.954
same,"Atg3.R.V RPPA signal, normalized",[1],0.983 and 0.993 and 0.963
same,"Atg4B.R.C RPPA signal, normalized",[1],0.966 and 1.004
same,"Atg5.R.C RPPA signal, normalized",[1],0.905 and 0.930 and 0.971 and 0.935
same,"Atg7.R.V RPPA signal, normalized",[1],0.958 and 0.891 and 0.903 and 0.917
same,"Aurora.A.R.C RPPA signal, normalized",[1],0.694 and 1.245 and 1.028 and 0.989
same,"Aurora.ABC_pT288_pT232_pT198.R.C RPPA signal, normalized",[1],1.548 and 0.847 and 0.955 and 1.117
same,"Aurora.B.R.V RPPA signal, normalized",[1],1.012 and 1.271 and 1.347 and 1.210
same,"Axl.R.V RPPA signal, normalized",[1],1.047 and 0.637 and 0.861 and 0.848
same,"B7.H3.R.C RPPA signal, normalized",[1],0.961 and 0.915 and 0.940 and 0.939
same,"B7.H4.R.C RPPA signal, normalized",[1],0.943 and 0.916 and 1.001 and 0.953
same,"B.Raf.R.C RPPA signal, normalized",[1],0.738 and 0.844 and 1.157 and 0.913
same,"B.Raf_pS445.R.V RPPA signal, normalized",[1],0.940 and 0.823 and 0.918 and 0.894
same,"BAP1.M.V RPPA signal, normalized",[1],0.893 and 1.010 and 1.204
same,"BCL2A1.R.V RPPA signal, normalized",[1],0.914 and 2.333 and 1.252 and 1.499
same,"BMK1.Erk5_pT218_Y220.R.V RPPA signal, normalized",[1],0.935 and 0.870 and 0.918
same,"BRCA1.M.C RPPA signal, normalized",[1],0.931 and 1.056 and 1.010
same,"BRD4.R.V RPPA signal, normalized",[1],1.134 and 1.372 and 0.806 and 1.104
same,"Bad_pS112.R.V RPPA signal, normalized",[1],1.129 and 0.968 and 1.064 and 1.054
same,"Bak.R.C RPPA signal, normalized",[1],1.051 and 0.994 and 0.952 and 0.999
same,"Bax.R.V RPPA signal, normalized",[1],0.935 and 1.085 and 1.013 and 1.011
same,"Bcl2.R.C RPPA signal, normalized",[1],0.991 and 1.244 and 1.141 and 1.125
same,"Bcl.xL.R.V RPPA signal, normalized",[1],0.890 and 1.164 and 1.151
same,"Beclin.R.C RPPA signal, normalized",[1],0.901 and 1.245 and 1.080
same,"BiP.GRP78.M.C RPPA signal, normalized",[1],0.879 and 1.117 and 1.006 and 1.001
same,"Bid.R.C RPPA signal, normalized",[1],0.866 and 0.980 and 0.948 and 0.931
same,"Bim.R.V RPPA signal, normalized",[1],0.847 and 0.884 and 0.890 and 0.874
same,"X4E.BP1.R.V RPPA signal, normalized",[1],1.207 and 0.505 and 0.892 and 0.868
same,"X4E.BP1_pS65.R.V RPPA signal, normalized",[1],0.934 and 1.191 and 1.054
same,"X4E.BP1_pT37_T46.R.V RPPA signal, normalized",[1],0.921 and 1.081 and 1.234 and 1.079
same,"X14.3.3.zeta.R.V RPPA signal, normalized",[1],1.058 and 1.063
same,"X14.3.3βR.V RPPA signal, normalized",[1],0.989 and 1.030 and 1.010 (2×)
same,"X14.3.3εM.C RPPA signal, normalized",[1],0.934 and 0.986 and 1.121 and 1.013
same,"X53BP1.R.V RPPA signal, normalized",[1],0.994 and 0.931 and 0.923
same,"b.Actin.R.C RPPA signal, normalized",[1],0.850 and 1.249 and 1.164
same,"b.Catenin.R.V RPPA signal, normalized",[1],0.881 and 0.923
same,"b.Catenin_pT41_S45.R.V RPPA signal, normalized",[1],1.016 and 0.989 and 1.006 and 1.004
same,"c.Abl.R.V RPPA signal, normalized",[1],1.105 and 1.008 and 1.020
same,"c.Abl_pY412.R.C RPPA signal, normalized",[1],0.873 and 0.871 and 0.928
same,"c.IAP2.R.C RPPA signal, normalized",[1],1.099 and 1.057
same,C.Raf.R.C normalized signal,Norm_10 Average,0.862
same,C.Raf_pS338.R.V normalized signal,Norm_10 Average,0.971
same,CA9.R.C normalized signal,Norm_10 Average,0.943
same,CD2.M.C normalized signal,Norm_10 Average,0.963
same,CD4.R.V normalized signal,Norm_10 Average,0.931
same,CD5.M.C normalized signal,Norm_10 Average,1.007
same,CD20.R.C normalized signal,Norm_10 Average,1.296
same,CD26.R.V normalized signal,Norm_10 Average,1.007
same,CD29.M.V normalized signal,Norm_10 Average,0.953
